# Measured values: PMC12844998, “Bridging the Knowledge Gap in Harmaline’s Pharmacological Properties: A Focus on Thermodynamics and Kinetics” (Pharmaceutics, 2025)
# Where two headings read alike, the source gives them in different places.
# How the values were obtained:
# [1] = undefined temperature, cited from earlier work
structure (smiles),measurement,setting,value
"COc1ccc2c3c([nH]c2c1)C(C)=NCC3 [HML, Harmaline]",distribution coefficient n-heptane/aqueous (pH 7.4),[1]; ref 19,0.05
same,distribution coefficient n-heptane/aqueous (pH 7.4),[1]; ref 20,0.11
same,log partition 1-octanol / buffer pH 7.4,"shake-flask; pH 7.4, 293.15",0.973 log10
same,log partition n-hexane / buffer pH 7.4,"shake-flask; pH 7.4, 293.15",−1.929 log10
same,log partition 1-octanol / buffer pH 7.4,"shake-flask; pH 7.4, 298.15",1.016 log10
same,log partition n-hexane / buffer pH 7.4,"shake-flask; pH 7.4, 298.15",−1.899 log10
same,log partition 1-octanol / buffer pH 7.4,"shake-flask; pH 7.4, 303.15",1.066 log10
same,log partition n-hexane / buffer pH 7.4,"shake-flask; pH 7.4, 303.15",−1.833 log10
same,log partition 1-octanol / buffer pH 7.4,"shake-flask; pH 7.4, 308.15",1.165 log10
same,log partition n-hexane / buffer pH 7.4,"shake-flask; pH 7.4, 308.15",−1.765 log10
same,log partition 1-octanol / buffer pH 7.4,"shake-flask; pH 7.4, 310.15",1.290 log10
same,log partition isopropyl myristate / buffer pH 7.4,"shake-flask; pH 7.4, 310.15",−0.602 log10
same,log partition n-hexane / buffer pH 7.4,"shake-flask; pH 7.4, 310.15",−1.658 log10
same,log partition 1-octanol / buffer pH 7.4,"shake-flask; pH 7.4, 313.15",1.345 log10
same,log partition n-hexane / buffer pH 7.4,"shake-flask; pH 7.4, 313.15",−1.605 log10
